In the supplement of paper PMC10307832:

Compound: COc1cc2ncn(-c3cc(OCc4ccccc4C(F)(F)F)c(C(N)=O)s3)c2cc1OC
Assay: relative viability (nuclei count vs DMSO), 5 days (fraction); higher = more cells survive
Summary of the method: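 Five library-drug doses, separated by factors of √10, were pinned into 1536-well plates holding lung cancer cell lines after an overnight stay at 37 °C. Cells were fixed, permeabilised and Hoechst-stained in one step after 5 days without medium change, then imaged at 4×. Viability compares treated-well with vehicle-well nuclei, counted in MetaXpress, as a median across plates. Passing plates had control CV below 25% and at least one doubling.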

| Cell Line | relative viability (0.05 µM) | relative viability (0.1581 µM) | relative viability (0.5 µM) | relative viability (1.581 µM) | relative viability (5 µM) |
| --- | --- | --- | --- | --- | --- |
| 201T | 0.994 | 1.02 | 0.995 | 0.377 | 0.294 |
| A549 | 0.987 | 1.01 | 0.399 | 0.0506 | 0.054 |
| A-427 | 1.05 | 1 | 0.886 | 0.297 | 0.128 |
| ABC-1 | 0.807 | 0.937 | 0.736 | 0.311 | 0.241 |
| BEN | 1.01 | 0.965 | 0.845 | 0.396 | 0.383 |
| CAL-12T | 0.827 | 0.836 | 0.565 | 0.249 | 0.193 |
| COR-L23 | 1.05 | 1.03 | 0.692 | 0.128 | 0.147 |
| COR-L 105 | 0.908 | 0.903 | 0.654 | 0.407 | 0.272 |
| Calu-6 | 0.956 | 0.835 | 0.268 | 0.117 | 0.11 |
| ChaGo-K-1 | 1.04 | 0.991 | 0.948 | 0.335 | 0.2 |
| EBC-1 | 0.924 | 0.929 | 0.301 | 0.19 | 0.157 |
| EKVX | 1.02 | 0.99 | 0.77 | 0.394 | 0.629 |
| EMC-BAC-2 | 1.29 | 1.06 | 0.805 | 0.435 | 0.239 |
| EPLC-272H | 0.615 | 0.946 | 0.269 | 0.124 | 0.101 |
| H3255 | 0.971 | 0.947 | 0.866 | 0.398 | 0.608 |
| HARA | 1.01 | 0.853 | 0.8 | 0.176 | 0.0967 |
| HCC-15 | 0.944 | 0.964 | 0.437 | 0.157 | 0.122 |
| HCC-44 | 0.985 | 1 | 0.871 | 0.204 | 0.211 |
| HCC-78 | 1.03 | 0.998 | 0.749 | 0.623 | 0.47 |
| HCC-366 | 1.02 | 0.927 | 0.429 | 0.0311 | 0.0273 |
| HCC-827 | 1.04 | 0.986 | 0.901 | 0.541 | 0.341 |
| HOP-62 | 1.03 | 1.01 | 0.861 | 0.336 | 0.161 |
| IA-LM | 0.865 | 0.81 | 0.109 | 0.0808 | 0.0819 |
| LC-2-ad | 0.941 | 0.918 | 0.351 | 0.195 | 0.227 |
| LCLC-97TM1 | 1.1 | 1.08 | 0.665 | 0.132 | 0.127 |
| LCLC-103H | 1.02 | 1.12 | 0.915 | 0.442 | 0.224 |
| LK-2 | 1.07 | 1.03 | 0.446 | 0.222 | 0.211 |

| Cell Line | relative viability (0.05 µM) | relative viability (0.1581 µM) | relative viability (0.5 µM) | relative viability (1.581 µM) | relative viability (5 µM) |
| --- | --- | --- | --- | --- | --- |
| LOU-NH91 | 0.97 | 1.03 | 0.801 | 0.455 | 0.531 |
| LU99A | 0.894 | 1.08 | 0.681 | 0.253 | 0.203 |
| LXF-289 | 0.977 | 0.82 | 0.674 | 0.132 | 0.0998 |
| NCI-H23 | 0.999 | 0.635 | 0.348 | 0.151 | 0.115 |
| NCI-H322M | 0.982 | 1.11 | 0.79 | 0.517 | 0.325 |
| NCI-H358 | 0.908 | 1.03 | 0.475 | 0.166 | 0.164 |
| NCI-H441 | 0.846 | 0.683 | 0.209 | 0.217 | 0.196 |
| NCI-H460 | 0.986 | 0.946 | 0.603 | 0.0622 | 0.0847 |
| NCI-H520 | 0.946 | 0.975 | 0.649 | 0.212 | 0.198 |
| NCI-H522 | 1.02 | 0.91 | 0.935 | 0.561 | 0.308 |
| NCI-H596 | 0.946 | 1.04 | 0.756 | 0.406 | 0.284 |
| NCI-H647 | 0.956 | 0.881 | 0.432 | 0.0899 | 0.0672 |
| NCI-H650 | 0.913 | 0.961 | 0.69 | 0.33 | 0.349 |
| NCI-H661 | 0.979 | 0.998 | 0.685 | 0.348 | 0.333 |
| NCI-H727 | 0.991 | 0.752 | 0.687 | 0.395 | 0.417 |
| NCI-H838 | 0.971 | 1.03 | 0.764 | 0.176 | 0.153 |
| NCI-H1299 | 1.01 | 1.02 | 0.718 | 0.269 | 0.318 |
| NCI-H1355 | 0.974 | 0.957 | 0.534 | 0.197 | 0.185 |
| NCI-H1395 | 0.964 | 0.925 | 0.68 | 0.4 | 0.314 |
| NCI-H1437 | 1.02 | 0.898 | 0.507 | 0.21 | 0.18 |
| NCI-H1563 | 1.02 | 0.984 | 0.888 | 0.865 | 0.654 |
| NCI-H1648 | 1.04 | 0.919 | 0.404 | 0.241 | 0.181 |
| NCI-H1650 | 0.899 | 0.951 | 0.396 | 0.19 | 0.147 |
| NCI-H1651 | 1.05 | 0.992 | 0.77 | 0.398 | 0.221 |
| NCI-H1666 | 0.971 | 0.907 | 0.74 | 0.451 | 0.449 |
| NCI-H1703 | 1.1 | 0.886 | 0.52 | 0.148 | 0.194 |
| NCI-H1734 | 1.02 | 1.02 | 0.591 | 0.224 | 0.174 |

| Cell Line | relative viability (0.05 µM) | relative viability (0.1581 µM) | relative viability (0.5 µM) | relative viability (1.581 µM) | relative viability (5 µM) |
| --- | --- | --- | --- | --- | --- |
| NCI-H1755 | 0.965 | 1.02 | 0.96 | 0.475 | 0.371 |
| NCI-H1792 | 1.11 | 0.894 | 0.403 | 0.16 | 0.103 |
| NCI-H1793 | 1.08 | 1.12 | 0.568 | 0.208 | 0.191 |
| NCI-H1915 | 1.01 | 0.947 | 0.784 | 0.132 | 0.105 |
| NCI-H1944 | 1.18 | 1.03 | 0.707 | 0.23 | 0.141 |
| NCI-H1975 | 1.09 | 0.902 | 0.643 | 0.226 | 0.17 |
| NCI-H1993 | 1.1 | 0.855 | 0.469 | 0.605 | 0.534 |
| NCI-H2009 | 0.909 | 0.905 | 0.472 | 0.232 | 0.174 |
| NCI-H2023 | 0.955 | 1.07 | 0.566 | 0.115 | 0.0893 |
| NCI-H2085 | 0.925 | 1.03 | 0.759 | 0.402 | 0.407 |
| NCI-H2087 | 1.08 | 0.923 | 0.628 | 0.135 | 0.124 |
| NCI-H2126 | 1.02 | 1 | 0.754 | 0.329 | 0.236 |
| NCI-H2170 | 1.01 | 0.907 | 0.473 | 0.202 | 0.197 |
| NCI-H2228 | 1.01 | 0.853 | 0.417 | 0.166 | 0.188 |
| NCI-H2342 | 1.09 | 1 | 0.855 | 0.623 | 0.466 |
| NCI-H2347 | 1.05 | 0.932 | 0.848 | 0.564 | 0.501 |
| NCI-H2405 | 1.13 | 0.769 | 0.665 | 0.428 | 0.351 |
| NCI-H3122 | 1 | 0.872 | 0.317 | 0.145 | 0.173 |
| PC-3 [JPC-3] | 1.06 | 0.985 | 0.636 | 0.303 | 0.296 |
| PC-14 | 0.988 | 0.923 | 0.661 | 0.141 | 0.0894 |
| RERF-LC-KJ | 0.987 | 1.07 | 0.584 | 0.297 | 0.471 |
| SK-LU-1 | 1.05 | 0.871 | 0.603 | 0.261 | 0.233 |
| SK-MES-1 | 1.02 | 0.931 | 0.622 | 0.194 | 0.269 |
| SW 900 | 0.91 | 0.827 | 0.638 | 0.275 | 0.176 |
| SW 1573 | 1.06 | 0.963 | 0.547 | 0.173 | 0.325 |
| UMC-11 | 0.913 | 0.708 | 0.329 | 0.182 | 0.145 |
